The source of these data is patent publication US10220040B2, “Compounds, compositions and methods useful for cholesterol mobilization” (Cerenis Therapeutics Holding SA, priority 2010, dated 2019).

One assay deals with human P2Y13 receptor (Homo sapiens (Human), UniProt Q9BPV8). As to the kind of experiment: Ca++ flux agonist assay on P2Y13 receptor transfected 1321N1 cells. The class given is cell-based. To be noted: comma is decimal sign. Here is the method: Compounds were assayed for their agonist activity on P2Y13 GPCR transfected cells using a Ca++ flux assay (associated to fluorescent dye detection) with the Reference Compound as positive reference. Two cell lines, 1321N1-P2Y13 stably expressing human P2Y13 receptor, and 1321N1 parental cell line as control, were used in this assay. 1321N1 Parental and 1321N1 P2Y13 were seeded into T25 flasks at 3 million cells per flask, respectively. Cells were incubated at 37 degrees Celsius in 5% CO2 overnight. The day after, cells were transfected with Gqi5 protein using Fugene transfection reagent (Roche's Fugene Reagent).
After 24 hours of transfection, cells were collected from flasks and seeded in 384-well plates at 8000 cells per well. The assays were carried out 48 hours after Gqi5 transfection.
Methods: The Ca++ flux assay was conducted according to the manufacturer's protocol (Molecular Devices FLIPR Calcium 4 Assay kit (R8142). Briefly, cell culture media were aspirated from the wells and replaced with 25 μL of Hank's buffer or PBS buffer. 25 μL of Ca++ dye was added into each assay well. The plate was incubated for 1 hour at 37° C. in 5% CO2. After the incubation, the plate was transferred to FlexStation III (FlexStation III (Molecular Devices)). The compounds were automatically injected into each well.

Assay [1] has as its system HepG2 cells. In words: In vitro HDL internalization in human hepatocytes (HepG2) cells. To be noted: compound 1 μM; 3H-labeled HDL 75 μg/ml, 10 min at 37° C. It counts as cell-based. Here is the method: FIG. 3: Single-dose effect of the selected molecules on HDL internalization by HepG2 cells. Cells were incubated for 10 min at 37° C. with 75 μg/ml ^3H cholesterol Cholesteryl Oleate [Cholesteryl-1,2-^3H(N)] HDL, Reference Compound (100 nM) and illustrative compounds of the invention (1 μM). Data are expressed as the percentage of internalized radioactivity with respect to the control value (set as […]). *p<0.005, **p<0.0001.
The effect of illustrative compounds of the invention on HDL internalization was measured by an in vitro assay on HepG2 cells (FIG. 3). ^3H cholesterol Cholesteryl Oleate [Cholesteryl-1,2-^3H(N)] labeled HDL] (available from PerkinElmer http://www.perkinelmer.com/Catalog/Product/ID/NET746L001MC) was loaded on HepG2 cells in presence of illustrative compounds of the invention (final concentration 1 μM). […] It was determined that Compounds XIa, IIc, IIa and Ih (R-isomer) have a strong impact on HDL uptake by HepG2 cells; Compounds IIb, VIIa and VIIIa have a modest impact on HDL uptake by HepG2 cells.
^3H cholesterol Cholesteryl Oleate [Cholesteryl-1,2-^3H(N)] (Perkin Elmer) solution (250 μL) was dried and resuspended in acetone (250 μL). The solution was mixed with Lipoprotein delipidated serum (20 mL at 40 mg/mL) and DTNB (0.4 μM final concentration). HDL (7 mg) was added and incubated overnight at 4° C. on gentle rotation. The HDL was purified on KBr gradient as previously described.
Hepatocytes were plated at 300,000 cells/well in 6×-well plates. Two days later, the cells were washed once with DMEM and incubated for 1 hour in DMEM at 37° C. 75 μg of radio-labeled HDL (6500 dpm/μg) were added to the medium and incubated for 10 minutes at 37° C. The cells were washed once with DMEM (2 mL) and incubated for 1.5 hours in DMEM at 4° C., whereupon dissociation occurred. Then the cells were washed once more with cold DMEM (2 mL) and the incorporated cholesterol ether was retrieved from HepG2 cells by the addition of hexane:isopropanol (3:2) solution (1 mL).

The subject of a further assay is C57Bl6 mice. In words: Dose response on bile physiology after single oral gavage in mice. The class given is in vivo. To be noted: oral gavage 0.003, 0.03 and 0.3 mg/kg, bile analyzed 6 hours later. Here is the method: FIG. 16A-J: Increase of bile secretion following activation of P2Y13r pathway in mice. C57Bl/6J mice (n=10) were fasted for 2 h and then intravenously injected with Cangrelor® or Compound IIa (10 nmoles/kg). Four hours later the gallbladders were removed and analyzed for: Bile acids content (FIG. 16A); Bile cholesterol content (FIG. 16B). C57Bl/6J mice (n=10) were fasted for 2 h followed by single oral dose of P2Y13r agonist Compound IIa at 3, 30 or 300 μg/kg. Six hours later bile acids contents (FIG. 16C); bile cholesterol content (FIG. 16D), and bile acid content of liver (FIG. 16E) were evaluated using HPLC and enzymatic kits for gallbladers. Plasma samples were collected at time 0 and after 6 h of treatment, then analyzed for: total cholesterol (▴), unesterified cholesterol (●), esterified cholesterol (▪) and HDL cholesterol (▾) determined using either enzymatic kits or Lipoprint® for HDL cholesterol (FIG. 16F). C57Bl/6J mice (n=5) were intravenously injected with [^3H]-cholesterol-labelled mouse HDL (FIG. 16G), [^3H]-cholesteryl oleate-labelled mouse HDL (FIG. 16H) or [^3H]-cholesterol-labelled mouse LDL (FIG. 16I), and with Cangrelor® or Compound IIa (10 nmoles/kg). Radioactivity present in the liver was determined 2 hours later for the HDL or 5 hours later for the LDL. Cholesterol content of feces from treated animals (100 μg/kg) was determined by Charge aerosol detection (FIG. 16J). *p<0.05, **p<0.01.
The dose response after oral gavage was determined for illustrative compounds of the invention. The chosen doses were 0.003, 0.03 and 0.3 mg/kg. The selected compounds of the invention were administrated by oral gavage and 6 hours later the mice are sacrificed and the bile content was analyzed (FIGS. 6-11).
Bile acids were diluted in PBS (1:5000) and the concentration was measured according to the manufacturer protocol with slight modifications. Concentrations of bile acids in the standard curve were varied from […] and the enzymatic reaction was performed for 20 minutes. 4 μl of 1:5000 bile dilution was used for concentration determination.
Bile phospholipids were measured according to the manufacturer protocol. Briefly, the standards were varied from 0 to 20 μg/ml and 4 μl of bile was measured in the assay. The reaction was performed for 5 minutes at 37° C.
Bile phospholipids were measured according to the manufacturer protocol. Briefly, the standards were varied from 0 to 60 μg/ml and 10 μl of bile (dilution 1:10) was measured in the assay. The reaction was performed for 5 minutes at 37° C.

Assay [2] relates to HepG2 cells. Particulars: previously reported (Jacquet et al. 2005); positive control; cited from earlier work.
Where [3] appears, read: Table 4, measured from data of Figure 2.
Setting [4] is: Table 3, measured from data of Figure 1.

Sequence of human P2Y13 receptor (Q9BPV8 whole entry): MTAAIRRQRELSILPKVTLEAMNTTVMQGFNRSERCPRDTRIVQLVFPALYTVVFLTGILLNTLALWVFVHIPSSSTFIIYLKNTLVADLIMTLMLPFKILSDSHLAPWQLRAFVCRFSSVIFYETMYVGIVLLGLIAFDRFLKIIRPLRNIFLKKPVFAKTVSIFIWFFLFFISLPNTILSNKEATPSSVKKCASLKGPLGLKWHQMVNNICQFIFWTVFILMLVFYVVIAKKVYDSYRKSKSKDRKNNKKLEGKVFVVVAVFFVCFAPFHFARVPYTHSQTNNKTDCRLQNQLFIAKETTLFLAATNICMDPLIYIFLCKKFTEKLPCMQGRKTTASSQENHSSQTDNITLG

Usually EC50 stands for the concentration at which the effect is half-maximal. A lower EC50 goes with greater potency. For “6-[1-(2-methylaminopyrimidin-5-ylmethyl)-piperidin-4-yl]-2-piperidin-1-yl-pyrimidin-4-ol [Compound IIc]”, the half-maximal effective concentration (EC50) at human P2Y13 receptor (setting [3]) worked out at 6.63 µM. Moreover, the “impact on HDL uptake by HepG2 cells” value in the assay on HepG2 cells [1] was “strong impact”. Besides, the “dose at which an effect on bile acids, bile cholesterol and bile phospholipids was shown” value (“dose at which an effect on bile acids” for short) with C57Bl6 mice was 3 µg/kg.
In the same order, the values of `COc1ccc(CN2CCC(c3cc(O)nc(N4CCCCC4)n3)CC2)cc1O` [Compound IIb, 6-[1-(3-Hydroxy-4-methoxybenzyl)-piperidin-4-yl]-2-piperidin-1-yl-pyrimidin-4-ol] are 0.299 µM, “modest impact” and 300 µg/kg.
On human P2Y13 receptor (setting [4]), `CCOC(=O)C(C)(C)CCCC[C@H](c1ccccc1Cl)N1CCc2sccc2C1` [Compound Ih (R-isomer)] registered an EC50 of 42.4 µM. Moreover, in the assay with HepG2 cells [1], the “impact on HDL uptake by HepG2 cells” value is on record as “strong impact”.
On to `CCOC(=O)C(C)(C)CCCC[C@@H](c1ccccc1Cl)N1CCc2sccc2C1` [Compound Ih (S-isomer)], for which it took 33.7 µM to reach a half-maximal effect on human P2Y13 receptor (setting [4]) (EC50).
On to `CCOc1cc(C2CC(=O)Nc3c2cnn3-c2ccccc2CC)ccc1O` (stereo not shown) [Compound VIIIa, 4-(3-Ethoxy-4-hydroxy-phenyl)-1-(2-ethyl-phenyl)-1,4,5,7-tetrahydro-pyrazolo[3,4-b]pyridin-6-one], for which, in the assay with C57Bl6 mice, the “dose at which an effect on bile acids” value came out at 3 µg/kg.
As for `O=C(C1OCCc2ccccc21)N1CCC2(CC1)Nc1ccccc1-n1cccc12` (stereo not shown) [Compound VIIa, isochroman-1-yl(5′H-spiro[piperidine-4,4′-pyrrolo[1,2-a]quinoxaline]-1-yl)methanone], the midpoint of the response on human P2Y13 receptor (setting [3]), the EC50, lay at 40.3 µM. Also, the “impact on HDL uptake by HepG2 cells” value in the assay with HepG2 cells [1] was “modest impact”. In the assay on C57Bl6 mice, the “dose at which an effect on bile acids” value was determined as 300 µg/kg.
`CC(C)(CCCCCC(c1ccccc1Cl)N1CCC(O)/C(=C/C(=O)O)C1)C(=O)O` (stereo not shown) [Compound Va] displayed an EC50 at human P2Y13 receptor (setting [4]) of 55.2 µM.
Consider `COCCNCC(=O)Nc1ccc2c(c1)OCCO2` [Compound XIa, N-(2,3-Dihydrobenzo[1,4]dioxin-6-yl)-2-(2-methoxy-ethylamino)-acetamide], for which a half-maximal response at human P2Y13 receptor (setting [3]) (EC50) required 0.0489 µM. In the assay with HepG2 cells [1], the “impact on HDL uptake by HepG2 cells” value was “strong impact”. Besides, the “dose at which an effect on bile acids” value in the assay on C57Bl6 mice came to 3 µg/kg.
As for `CSCCNc1nc(SCCC(F)(F)F)nc2c1ncn2[C@@H]1O[C@H](COP(=O)(O)OP(=O)(O)C(Cl)(Cl)P(=O)(O)O)[C@@H](O)[C@H]1O` [Reference Compound, Dichloro-(((((2R,3S,4R,5R)-3,4-dihydroxy-5-(6-(2-(methylthio)ethylamino)-2-(3,3,3-trifluoropropylthio)-9H-purin-9-yl)tetrahydrofuran-2-yl)methoxy)(hydroxy)phosphoryloxy)(hydroxy)phosphoryl)-methylphosphonic acid, reference compound], the EC50 at human P2Y13 receptor (setting [3]) turned out to be 0.00632 µM. In addition, the “HDL uptake in HepG2 cells in vitro” value with HepG2 cells [2] is “increase the HDL uptake”.
